Assay results reported in patent US20070142345A1, “Steroids for cancer treatment” (priority 2004, published 2007).

What was measured:
hER-α = target: T1, hER-α (Homo sapiens, UniProt P03372); assay: In vitro binding affinity to the estrogen receptor-α, displacement assay with 0.5 nM 3H-estradiol; details: hER-α recombinant, insect Sf cells, 0.5 nM 3H-estradiol radioligand, tested 0.03-10.0 nM; for IC50: read-out: ERα-aff IC50; for Ki: read-out: ERα-aff Ki
T1 construct: purchased MDS PharmaServices (contract assay); host or cells: insect Sf cells
T1 sequence (P03372 1-595): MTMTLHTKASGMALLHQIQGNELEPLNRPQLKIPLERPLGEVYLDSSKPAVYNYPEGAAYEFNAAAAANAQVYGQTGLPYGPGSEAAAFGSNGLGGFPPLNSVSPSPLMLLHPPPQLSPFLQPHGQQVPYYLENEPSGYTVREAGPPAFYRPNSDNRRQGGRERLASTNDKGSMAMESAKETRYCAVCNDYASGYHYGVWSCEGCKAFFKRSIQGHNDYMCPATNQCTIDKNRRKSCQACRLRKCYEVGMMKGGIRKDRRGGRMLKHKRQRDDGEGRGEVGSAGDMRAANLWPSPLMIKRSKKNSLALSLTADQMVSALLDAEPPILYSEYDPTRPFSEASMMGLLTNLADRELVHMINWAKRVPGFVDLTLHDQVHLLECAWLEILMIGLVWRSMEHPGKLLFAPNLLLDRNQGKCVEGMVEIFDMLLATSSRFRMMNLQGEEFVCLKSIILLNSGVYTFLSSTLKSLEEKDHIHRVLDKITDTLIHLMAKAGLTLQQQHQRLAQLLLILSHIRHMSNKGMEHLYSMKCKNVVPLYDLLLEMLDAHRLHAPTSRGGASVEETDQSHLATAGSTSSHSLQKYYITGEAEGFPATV
Experimental: In Vitro Binding Affinty to the Estrogen Receptor-α (MDS PharmaServices)
Binding affinity was determined in a displacement assay using hER-α (recombinant, insect Sf cells) with 0.5 nM ^3H-estradiol as radioligand. The compounds were tested in concentrations from 0.03-10.0 nM. Results are given as IC50 and Ki.

[1] = test system: ICR derived immature female mice; assay: In vivo estrogenic antagonism, estradiol-benzoate challenge, uterine wet weight; design: unit: %; details: 10 mg/kg s.c., three consecutive days, estradiol-benzoate 3 μg/kg s.c. challenge, uterus wet weight 24 h after final dose
Experimental: In Vivo Estrogenic Antagonism (MDS PharmaServices)
Compounds were administered s.c. (10 mg/kg) for three consecutive days to a group of 5 ICR derived immature female mice weighing approx. 13 g and challenged with estradiol-benzoate (3 μg/kg s.c.) immediately after each daily dosing. The animals were sacrificed 24 h after the final dose and wet weight of the uterus was measured. A 50% or greater reduction in the estradiol-induced increase in uterine weight indicates possible estrogen antagonist activity.

[2] = test system: ICR derived immature female mice; assay: In vivo estrogenic agonism, uterine wet weight; details: 10 mg/kg s.c., three consecutive days, uterus wet weight 24 h after final dose
Experimental: In Vivo Estrogenic Agonism (MDS PharmaServices)
Compounds were administered s.c. (10 mg/kg) for three consecutive days to a group of 5 ICR derived immature female mice weighing approx. 13 g. The animals were sacrificed 24 h after the final dose and wet weight of the uterus was measured. A 50% or greater increase in the uterine weight relative to the vehicle control group indicates possible estrogen agonist activity.

Compound | IC50 (hER-α) [nM] | Ki (hER-α) [nM] | in vivo antagonism (reduction in the estradiol-induced increase in uterine weight) [1] | In vivo agonism (increase in uterine weight relative to vehicle control) [2] [%]
C=C1[C@H](O)C[C@H]2[C@@H]3[C@H](CCCCCCCCCCC(=O)N(C)CCCC)Cc4cc(O)ccc4[C@H]3CC[C@]12C [Ex 1, 11-(3,16α-Dihydroxy-17-methylene-estra-1,3,5(10)-triene-7α-yl)-undecanoic acid n-butyl-methyl-amide] | 3.5 | 1 | 61 | 1
CCCCN(C)C(=O)CCCCCCCCCC[C@@H]1Cc2cc(O)ccc2C2CC[C@@]3(C)C(C[C@@H](O)C34CC4)C21 (stereo partly drawn) [Ex 4, 11-(17-(1,2-Ethylene)-3,16α-dihydroxy-estra-1,3,5(10)-triene-7α-yl)-undecanoic acid n-butyl-methyl-amide] | 2.48 | 0.71 | 58 | 4
C=C1[C@H](O)CC2C3C(CC[C@]12C)c1ccc(O)cc1C[C@H]3CCCCCCCCC[S+]([O-])CCCC(F)(F)C(F)(F)F (some centres unmarked) [Ex 5] | 1.19 | 0.34 | 55 | 8
CO[C@H]1c2cc(O)ccc2C2CC[C@@]3(C)C(C[C@@H](O)C34CC4)C2[C@@H]1CCCCCCCCC[S+]([O-])CCCC(F)(F)C(F)(F)F (some centres unmarked) [Ex 8] | 10.2 | 2.91 |  | 
C[C@]12CCC3c4ccc(O)cc4C(=O)[C@@H](CCCCCCCCC[S+]([O-])CCCC(F)(F)C(F)(F)F)C3C1C[C@@H](O)C21CC1 (stereo partly drawn) [Ex 10, 17-(1,2-Ethylene)-3,16α-dihydroxy-6-keto-7α-[9-[(4,4,5,5,5-pentafluoro-n-pentyl)sulfinyl]nonyl]-estra-1,3,5(10)-triene] | 4.75 | 1.36 |  | 
C[C@]12CCC3c4ccc(O)cc4[C@@H](O)[C@@H](CCCCCCCCC[S+]([O-])CCCC(F)(F)C(F)(F)F)C3C1C[C@@H](O)C21CC1 (stereo partly drawn) [Ex 12, 17-(1,2-Ethylene)-3,6α,16α-trihydroxy-7α-[9-[(4,4,5,5,5-pentafluoro-n-pentyl)sulfinyl]nonyl]-1,3,5(10)-triene] | 1.59 | 0.45 |  | 
CO[C@@H]1c2cc(O)ccc2C2CC[C@@]3(C)C(C[C@@H](O)C34CC4)C2[C@@H]1CCCCCCCCC[S+]([O-])CCCC(F)(F)C(F)(F)F (stereo partly drawn) [Ex 14, 17-(1,2-Ethylene)-3,16α-dihydroxy-6α-methoxy-7α-[9-[(4,4,5,5,5-pentafluoro-n-pentyl)sulfinyl]nonyl]-estra-1,3,5(10)-triene] | > 10 | > 10 |  | 
C[C@]12CCC3c4ccc(O)cc4[C@H](F)[C@@H](CCCCCCCCC[S+]([O-])CCCC(F)(F)C(F)(F)F)C3C1C[C@@H](O)C21CC1 (stereo partly drawn) [Ex 16, 17-(1,2-Ethylene)-6β-fluoro-3,16α-dihydroxy-7α-[9-[(4,4,5,5,5-pentafluoro-n-pentyl)sulfinyl]nonyl]-estra-1,3,5(10)-triene] | 1.04 | 0.3 |  | 
C[C@]12CCC3c4ccc(O)cc4C[C@@H](CCCCCCCCC[S+]([O-])CCCC(F)(F)C(F)(F)F)C3C1C[C@@H](O)C21CC1 (stereo partly drawn) [Ex 18, 17-(1,2-Ethylene)-3,16α-dihydroxy-7α-[9-[(4,4,5,5,5-pentafluoro-n-pentyl)sulfinyl]nonyl]-estra-1,3,5(10)-triene] | 0.92 | 0.26 |  | 
CCCCN(C)C(=O)CCCCCCCCCC[C@@H]1Cc2cc(O)ccc2[C@H]2CC[C@]3(C)[C@@H](O)CC[C@H]3[C@H]12 [ICI 164, 384, 11-(3,17β-Dihydroxy-estra-1,3,5(10)-triene-7α-yl)-undecanoic acid n-butyl-methyl-amide, reference compound] |  |  | 66 | 
CC12CCC3c4ccc(O)cc4CC(CCCCCCCCC[S+]([O-])CCCC(F)(F)C(F)(F)F)C3C1CCC2O (centres unmarked) [ICI 182, 780, reference compound] |  |  | 66 | 
